Here are results for 26 compounds from patent publication US20080306284A1, “Lipase Inhibitors” (priority 2004, published 2008).

Some results are limits rather than exact numbers.

Tested on in one data set: not given
Experiment: not given
The following applies: reported in the literature; cited from earlier work.
Consider `CCCCCCCCCCC[C@@H](C[C@@H]1OC(=O)[C@H]1CCCCCC)OC(=O)[C@H](CC(C)C)NC=O` [Xenical], for which the adverse side effects entry is “fatty stools, increased stool frequency, loose stools, diarrhea and abdominal pain”. Turning to `OC1(c2ccc(Cl)cc2)c2ccccc2C2=NCCN21` (stereo not drawn) [Mazindol], the adverse side effects entry is “dry mouth, constipation, stomach discomfort and nausea/vomiting”.

In the next data set the target is T1, porcine pancreatic lipase (Sus scrofa, UniProt P00591).
T1 construct: purchased Sigma
T1 sequence (P00591 1-450): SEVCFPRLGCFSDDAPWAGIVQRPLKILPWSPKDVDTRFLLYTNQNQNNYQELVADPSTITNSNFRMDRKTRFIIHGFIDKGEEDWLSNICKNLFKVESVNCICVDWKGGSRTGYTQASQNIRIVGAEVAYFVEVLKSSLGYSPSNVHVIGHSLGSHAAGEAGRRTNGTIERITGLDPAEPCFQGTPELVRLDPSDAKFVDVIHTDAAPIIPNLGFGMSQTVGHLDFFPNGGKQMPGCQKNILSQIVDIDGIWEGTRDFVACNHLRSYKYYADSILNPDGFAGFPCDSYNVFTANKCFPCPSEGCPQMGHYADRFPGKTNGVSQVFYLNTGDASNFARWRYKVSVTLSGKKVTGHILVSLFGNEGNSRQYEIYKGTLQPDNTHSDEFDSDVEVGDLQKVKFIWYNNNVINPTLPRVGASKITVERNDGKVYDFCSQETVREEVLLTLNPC
Kind of data set: Lipase inhibitory activity assay (4-MUO substrate, fluorescence). It counts as biochemical. The following applies: method of Example 1. As to the method:
A lipase activity assay was performed by using the oleate ester of fluorescent 4-methylumbelliferone (4-MUO) as a substrate to measure the fluorescence of 4-methylumbelliferone produced by reaction.
The buffer used for the assay was 13 mM Tris-HCl (pH 8.0) containing 150 mM NaCl, 1.36 mM CaCl2. The enzyme assay was performed using a 0.1 M solution of the substrate 4-MUO (Sigma) in DMSO diluted 1:1000 in said buffer and a solution of porcine pancreatic lipase (Sigma) prepared at 400 U/ml also in said buffer.
An enzymatic reaction was started by adding 25 μl of the lipase/buffer solution after 50 μl of the 4-MUO/buffer solution and 25 μl of distilled water (or an aqueous solution of each sample) were added and mixed in a 96-well microplate at 25° C. After the reaction was performed for 30 minutes, the reaction was stopped by adding 100 μl of a 0.1 M citrate buffer (pH 4.2) and the fluorescence of 4-methylumbelliferone produced by the reaction (excitation 355 nm, emission 460 nm) was measured using a fluorescence plate reader (Fluoroskan Asent CF from Labsystems).
The inhibitory activity of each test sample was determined as IC50(μM), i.e. the amount of the sample giving 50% inhibition of the activity of the control (distilled water).
On to “(−)-epigallocatechin 3-O-gallate [(−)-epigallocatechin 3-O-gallate (4), reference compound]”, for which the “lipase inhibitory activity (in words)” value was “strongest activity among the major catechins”.

The same data set, now with this note: porcine pancreatic lipase, 4-MUO substrate, 25° C., 30 minutes, pH 8.0.
Regarding `Oc1cc(O)c2c(c1)O[C@H](c1ccc(O)c(O)c1)[C@@H](O)[C@@H]2c1c(O)cc(O)c2c1O[C@H](c1ccc(O)c(O)c1)[C@@H](O)C2` [procyanidin B-3 (10), procyanidin B-3], the 50% inhibitory concentration (IC50) was 2940 nM. On to `O=C(O[C@@H]1[C@@H](c2c(O)cc(O)c3c2O[C@H](c2cc(O)c(O)c(O)c2)[C@H](OC(=O)c2cc(O)c(O)c(O)c2)C3)c2c(O)cc(O)cc2O[C@@H]1c1ccc(O)c(O)c1)c1cc(O)c(O)c(O)c1` [(−)-epicatechin 3-O-gallate (4β − 8) (−)-epigallocatechin 3-O-gallate], for which inhibition was half-maximal at 846 nM (IC50). Same read-out and setting: the same measure for `O=C(O[C@@H]1Cc2c(O)cc(O)c([C@@H]3c4c(O)cc(O)cc4O[C@H](c4cc(O)c(O)c(O)c4)[C@H]3O)c2O[C@@H]1c1cc(O)c(O)c(O)c1)c1cc(O)c(O)c(O)c1` [prodelphinidin B-4 3′-O-gallate (16), prodelphinidin B-4 3′-O-gallate]: 223 nM; for `Oc1cc(O)c2c(c1)O[C@H](c1cc(O)c(O)c(O)c1)[C@H](O)[C@H]2c1c(O)cc(O)c2c1O[C@H](c1cc(O)c(O)c(O)c1)[C@H](O)C2` [prodelphinidin B-2 (12), prodelphinidin B-2]: 2950 nM; for `Oc1cc(O)c2c(c1)O[C@H](c1cc(O)c(O)c(O)c1)[C@H](O)C2` [(−)-epigallocatechin (3), (−)-epigallocatechin, reference compound]: over 20400 nM. Still for that read-out and setting: the same measure for `Oc1cc(O)c2c(c1)O[C@H](c1ccc(O)c(O)c1)[C@@H](O)[C@@H]2c1c(O)cc(O)c2c1O[C@H](c1cc(O)c(O)c(O)c1)[C@H](O)C2` [(+)-catechin (4α − 8) (−)-epigallocatechin]: 7910 nM; for `Oc1cc(O)c2c(c1)OC(c1ccc(O)c(O)c1)C(O)C2` (single isomer, unassigned; (+)) [(+)-catechin (5), (+)-catechin, reference compound]: over 690000 nM.

prodelphinidin B-5 3,3′-di-O-gallate displayed an IC50 of 558 nM. Still for that read-out and setting: the same measure for `O=C(O[C@@H]1Cc2c(O)cc(O)c([C@@H]3c4c(O)cc(O)cc4O[C@H](c4ccc(O)c(O)c4)[C@H]3O)c2O[C@@H]1c1cc(O)c(O)c(O)c1)c1cc(O)c(O)c(O)c1` [(+)-catechin (α + 8) (−)-epigallocatechin 3-O-gallate]: 174 nM; for `Oc1cc(O)c2c(c1)O[C@H](c1cc(O)c(O)c(O)c1)[C@@H](O)C2` [(+)-gallocatechin (7), (+)-gallocatechin, reference compound]: over 163000 nM; for `O=C(O[C@@H]1Cc2c(O)cc(O)c([C@H]3c4c(O)cc(O)cc4O[C@H](c4ccc(O)c(O)c4)[C@@H]3O)c2O[C@@H]1c1cc(O)c(O)c(O)c1)c1cc(O)c(O)c(O)c1` [(−)-epicatechin (4β − 8) (−)-epigallocatechin 3-O-gallate]: 147 nM. Same read-out and setting: next, `O=C(O[C@@H]1[C@@H](c2c(O)cc(O)c3c2O[C@H](c2cc(O)c(O)c(O)c2)[C@H](OC(=O)c2cc(O)c(O)c(O)c2)C3)c2c(O)cc(O)cc2O[C@@H]1c1cc(O)c(O)c(O)c1)c1cc(O)c(O)c(O)c1` [prodelphinidin B-2 3,3′-di-O-gallate]: 107 nM. In the case of `Oc1cc(O)c2c(c1)O[C@H](c1ccc(O)c(O)c1)[C@H](O)C2` [(−)-epicatechin (1), (−)-epicatechin, reference compound], the half-inhibitory concentration (IC50) is over 21600 nM. Same read-out and setting: the same measure for “(−)-epigallocatechin 3-O-gallate [(−)-epigallocatechin 3-O-gallate (4), reference compound]”: 284 nM. In turn, `Oc1cc(O)c2c(c1)O[C@H](c1cc(O)c(O)c(O)c1)[C@@H](O)[C@@H]2c1c(O)cc(O)c2c1O[C@H](c1cc(O)c(O)c(O)c1)[C@H](O)C2` [prodelphinidin B-4 (15), prodelphinidin B-4] gave a half-maximal inhibitory concentration (IC50) of 6230 nM. The same measure, in the same setting: the same measure for `O=C(O[C@@H]1Cc2c(O)cc(O)c([C@H]3c4c(O)cc(O)cc4O[C@H](c4cc(O)c(O)c(O)c4)[C@@H]3O)c2O[C@@H]1c1ccc(O)c(O)c1)c1cc(O)c(O)c(O)c1` [(−)-epigallocatechin (4β − 8) (−)-epicatechin 3-O-gallate]: 913 nM. On the same count and under the same terms, the same measure for `O=C(OC1Cc2c(O)cc(O)c(C3c4c(O)cc(O)cc4OC(c4cc(O)c(O)c(O)c4)C3O)c2OC1c1cc(O)c(O)c(O)c1)c1cc(O)c(O)c(O)c1` (stereo not drawn) [prodelphinidin B-2 3′-O-gallate (13), prodelphinidin B-2 3′-O-gallate]: 1970 nM; for `Oc1cc(O)c2c(c1)O[C@H](c1ccc(O)c(O)c1)[C@H](O)[C@H]2c1c(O)cc(O)c2c1O[C@H](c1ccc(O)c(O)c1)[C@H](O)C2` [procyanidin B-2 (9), procyanidin B-2]: 7960 nM. Compound `O=C(O[C@@H]1Cc2c(O)cc3c(c2O[C@@H]1c1cc(O)c(O)c(O)c1)[C@H]1c2c(O)cc(O)cc2O[C@@](c2cc(O)c(O)c(O)c2)(O3)[C@@H]1O)c1cc(O)c(O)c(O)c1` [prodelphinidin A-2 3′-O-gallate (11), prodelphinidin A-2 3′-O-gallate] came in with an IC50 of 171 nM. On the same count and under the same terms, the same measure for `O=C(O[C@@H]1[C@@H](c2c(O)cc(O)c3c2O[C@H](c2ccc(O)c(O)c2)[C@H](OC(=O)c2cc(O)c(O)c(O)c2)C3)c2c(O)cc(O)cc2O[C@@H]1c1cc(O)c(O)c(O)c1)c1cc(O)c(O)c(O)c1` [(−)-epigallocatechin 3-O-gallate (4β − 8) (−)-epicatechin 3-O-gallate]: 612 nM; for `O=C(O[C@@H]1Cc2c(O)cc(O)cc2O[C@H]1c1cc(O)c(O)c(O)c1)c1cc(O)c(O)c(O)c1` [(−)-gallocatechin 3-O-gallate (8), (−)-gallocatechin 3-O-gallate, reference compound]: 349 nM; for `O=C(O[C@@H]1Cc2c(O)cc(O)cc2O[C@H]1c1ccc(O)c(O)c1)c1cc(O)c(O)c(O)c1` [(−)-catechin 3-O-gallate (6), (−)-catechin 3-O-gallate, reference compound]: 846 nM. Still for that read-out and setting: next, `Oc1cc(O)c2c(c1)O[C@H](c1cc(O)c(O)c(O)c1)[C@@H](O)[C@@H]2c1c(O)cc(O)c2c1O[C@H](c1ccc(O)c(O)c1)[C@H](O)C2` [(+)-gallocatechin (4α − 8) (−)-epicatechin]: 2860 nM; “(−)-epicatechin 3-O-gallate [(−)-epicatechin 3-O-gallate (2), reference compound]”: 271 nM.
